From patent US11839613B2, “Pyrimidine derivatives as PGE2 receptor modulators” (IDORSIA PHARMACEUTICALS LTD, priority 2017, dated 2023)

Experiments:
PTGER2 (EP2) = PTGER2 (EP2) (Homo sapiens (Human), UniProt P43116); experiment: hEP2 b-arrestin assay (PathHunter HEK 293 PTGER2 b-arrestin cells); assay type: cell-based; conditions: antagonistic activity, beta-arrestin assay; read-out: hEP2 b-arr IC50
Protocol: Plate is pre-incubated 15 minutes at 37° C. Then five microliters of PGE2 (final conc. 5 μM) are transferred into the assay plate. Plate is incubated 120 minutes at 37° C.
(each concentration is measured in duplicate)

PTGER4 (EP4) = PTGER4 (EP4) (Homo sapiens (Human), UniProt P35408); experiment: cell-based
PTGER4 (EP4), sequence (P35408 whole entry): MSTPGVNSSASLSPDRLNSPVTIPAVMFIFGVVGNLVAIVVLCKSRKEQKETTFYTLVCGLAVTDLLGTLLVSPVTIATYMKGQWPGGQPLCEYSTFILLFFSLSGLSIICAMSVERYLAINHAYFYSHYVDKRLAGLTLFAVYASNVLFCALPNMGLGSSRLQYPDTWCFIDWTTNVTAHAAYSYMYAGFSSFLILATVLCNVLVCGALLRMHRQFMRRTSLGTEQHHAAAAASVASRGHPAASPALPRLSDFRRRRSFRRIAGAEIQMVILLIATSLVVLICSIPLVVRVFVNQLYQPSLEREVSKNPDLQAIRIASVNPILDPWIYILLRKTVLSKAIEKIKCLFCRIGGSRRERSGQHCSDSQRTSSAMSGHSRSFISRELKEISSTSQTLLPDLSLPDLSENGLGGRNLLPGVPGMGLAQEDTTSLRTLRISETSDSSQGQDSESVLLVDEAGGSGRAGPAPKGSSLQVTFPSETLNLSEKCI
Text: The system is based on the Enzyme Fragment Complementation Technology. Two complementing fragments of the b-galactosidase enzyme are expressed within stably transfected cells. The larger portion of b-gal, termed EA for Enzyme Acceptor, is fused to the C-terminus of b-arrestin 2. The smaller fragment, termed ProLink™ tag, is fused to PTGER2 (EP2) or PTRGER4 (EP4) at the C-terminus. Upon activation, b-arrestin is recruited which forces the interaction of ProLink and EA, allowing complementation of the two fragments of b-gal and the formation of a functional enzyme which is capable of hydrolysing the substrate and generating a chemiluminescent signal.
Plate is incubated at 37° C., 5% CO2 for 24 hours.
Stock solutions of test compounds are made at a concentration of 10 mM in DMSO, and serially diluted in DMSO to concentrations required for inhibition dose response curves (tested concentration range 10 μM-2 nM or 1 μM-0.2 nM).
Five microliters of diluted compounds are transferred into the assay plate. Plate is pre-incubated 15 minutes at 37° C. Then five microliters of PGE2 (final conc. 20 nM) are transferred into the assay plate. Plate is incubated 120 minutes at 37° C.
Twelve I of reagent are transferred to the assay plate and incubate for 1 hour at RT in the dark. Luminescence counts are read on a BMG Fluostar Optima reader according to manufacturer's instructions.
For each compound concentration calculate of the percentage of activity compared to DMSO control value as average ±STDEV. (each concentration is measured in duplicate)

PTGER2 (EP2), sequence (P43116 whole entry): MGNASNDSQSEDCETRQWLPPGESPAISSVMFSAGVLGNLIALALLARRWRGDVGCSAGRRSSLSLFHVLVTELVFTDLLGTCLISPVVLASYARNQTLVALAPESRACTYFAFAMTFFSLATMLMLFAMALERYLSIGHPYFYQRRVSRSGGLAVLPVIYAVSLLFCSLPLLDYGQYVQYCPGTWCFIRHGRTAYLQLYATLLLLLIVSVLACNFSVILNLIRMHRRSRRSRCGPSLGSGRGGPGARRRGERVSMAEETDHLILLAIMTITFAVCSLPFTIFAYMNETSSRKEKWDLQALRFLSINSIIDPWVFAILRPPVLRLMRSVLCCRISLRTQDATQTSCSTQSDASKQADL

IC50 (PTGER2 (EP2)) [nM]	IC50 (PTGER4 (EP4)) [nM]	Structure (SMILES)
331	114	CCCc1cc(-c2cc(NCCc3cc4c(cc3OC)OCCO4)ncn2)ccc1C(C)C(=O)O (racemic) [Example 401, rac-2-(4-{6-[2-(7-Methoxy-2,3-dihydro-benzo[1,4]dioxin-6-yl)-ethylamino]-pyrimidin-4-yl]-2-propyl-phenyl)-propionic acid]
272	914	O=C(O)C1Cc2cc(-c3cc(NCCc4ccc5sccc5c4)ncn3)ccc2O1 (racemic) [Example 474, rac-5-[6-(2-Benzo[b]thiophen-5-yl-ethylamino)-pyrimidin-4-yl]-2,3-dihydro-benzofuran-2-carboxylic acid]
328	63	CCCc1cc(-c2cc(NCCc3ccc4sccc4c3)ncn2)ccc1C(C)C(=O)O (racemic) [Example 481, rac-2-{4-[6-(2-Benzo[b]thiophen-5-yl-ethylamino)-pyrimidin-4-yl]-2-propyl-phenyl}-propionic acid]
444	91	CCCc1cc(-c2cc(NCCc3ccc4sccc4c3F)ncn2)ccc1C(C)C(=O)O (racemic) [Example 482, rac-2-(4 -{6-[2-(4-Fluoro-benzo[b]thiophen-5-yl)-ethylamino]-pyrimidin-4-yl}-2-propyl-phenyl)-propionic acid]
59	136	CCCc1cc(-c2cc(NCCc3cc4c(cc3OCC)OCCO4)ncn2)ccc1C(C)C(=O)O (racemic) [Example 487, rac-2-(4-{6-[2-(7-Ethoxy-2,3-dihydro-benzo[1,4]dioxin-6-yl)-ethylamino]-pyrimidin-4-yl}-2-propyl-phenyl)-propionic acid]
187	116	CCOc1cc(-c2cc(NCCc3cc(F)c4sccc4c3)ncn2)ccc1C(=O)O [Example 361, 2-Ethoxy-4-{6-[2-(7-fluoro-benzo[b]thiophen-5-yl)-ethylamino]-pyrimidin-4-yl}-benzoic acid]
20	6	CCOc1cc(-c2cc(NCCc3cc(F)c4sccc4c3)ncn2)sc1C(=O)O [Example 362, 3-Ethoxy-5-{6-[2-(7-fluoro-benzo[b]thiophen-5-yl)-ethylamino]-pyrimidin-4-yl}-thiophene-2-carboxylic acid]
479	59	CCOc1cc(-c2cc(NCCc3cc(F)c4sccc4c3)ncn2)ccc1CC(=O)O [Example 363, (2-Ethoxy-4-{6-[2-(7-fluoro-benzo[b]thiophen-5-yl)-ethylamino]-pyrimidin-4-yl}-phenyl)-acetic acid]
151	52	CSc1cc(-c2cc(NCCc3cc(F)c4sccc4c3)ncn2)ccc1C(=O)O [Example 364, 4-{6-[2-(7-Fluoro-benzo[b]thiophen-5-yl)-ethylamino]-pyrimidin-4-yl}-2-methylsulfanyl-benzoic acid]
77	149	CCOc1cc(-c2cc(NCCc3ccc4sccc4c3F)ncn2)ccc1C(=O)O [Example 365, 2-Ethoxy-4-{6-[2-(4-fluoro-benzo[b]thiophen-5-yl)-ethylamino]-pyrimidin-4-yl}-benzoic acid]
7	2	CCOc1cc(-c2cc(NCCc3ccc4sccc4c3F)ncn2)sc1C(=O)O [Example 367, 3-Ethoxy-5-{6-[2-(4-fluoro-benzo[b]thiophen-5-yl)-ethylamino]-pyrimidin-4-yl}-thiophene-2-carboxylic acid]
221	66	CCOc1cc(-c2cc(NCCc3ccc4sccc4c3F)ncn2)ccc1CC(=O)O [Example 368, (2-Ethoxy-4-{6-[2-(4-fluoro-benzo[b]thiophen-5-yl)-ethylamino]-pyrimidin-4-yl}-phenyl)-acetic acid]
438	105	CCOc1cc(-c2cc(NCCc3ccc4sccc4c3)ncn2)cc(F)c1CC(=O)O [Example 370, {4-[6-(2-Benzo[b]thiophen-5-yl-ethylamino)-pyrimidin-4-yl]-2-ethoxy-6-fluoro-phenyl}-acetic acid]
86	88	CCOc1cc(-c2cc(NCCc3cc4ccsc4cc3OC)ncn2)cc(F)c1CC(=O)O [Example 371, (2-Ethoxy-6-fluoro-4-{6-[2-(6-methoxy-benzo[b]thiophen-5-yl)-ethylamino]-pyrimidin-4-yl}-phenyl)-acetic acid]
75	195	CCOc1cc(-c2cc(NCCc3ccc4sccc4c3C)ncn2)cc(F)c1CC(=O)O [Example 372, (2-Ethoxy-6-fluoro-4-{6-[2-(4-methyl-benzo[b]thiophen-5-yl)-ethylamino]-pyrimidin-4-yl}-phenyl)-acetic acid]
257	118	CCOc1cc(-c2cc(NCCc3cc4c(cc3OC)OCCO4)ncn2)cc(F)c1CC(=O)O [Example 373, (2-Ethoxy-6-fluoro-4-{6-[2-(7-methoxy-2,3-dihydro-benzo[1,4]dioxin-6-yl)-ethylamino]-pyrimidin-4-yl}-phenyl)-acetic acid]

IC50 (PTGER2 (EP2)) [nM]	IC50 (PTGER4 (EP4)) [nM]	Structure (SMILES)
334	52	CCOc1cc(-c2cc(NCCc3c(OC)cc4ccccc4c3C)ncn2)cc(F)c1CC(=O)O [Example 374, (2-Ethoxy-6-fluoro-4-{6-[2-(3-methoxy-1-methyl-naphthalen-2-yl)-ethylamino]-pyrimidin-4-yl}-phenyl)-acetic acid]
229	46	CCOc1cc(-c2cc(NCCc3ccc4sccc4c3F)ncn2)cc(F)c1CC(=O)O [Example 375, (2-Ethoxy-6-fluoro-4-{6-[2-(4-fluoro-benzo[b]thiophen-5-yl)-ethylamino]-pyrimidin-4-yl}-phenyl)-acetic acid]
50	13	CCOc1cc(-c2cc(NCCc3ccc4ccsc4c3C)ncn2)sc1C(=O)O [Example 376, 3-Ethoxy-5-{6-[2-(7-methyl-benzo[b]thiophen-6-yl)-ethylamino]-pyrimidin-4-yl}-thiophene-2-carboxylic acid]
8	68	CCCc1cc(-c2cc(NCCc3cc4ccsc4cc3OC)ncn2)ccc1C(=O)O [Example 377, 4-{6-[2-(6-Methoxy-benzo[b]thiophen-5-yl)-ethylamino]-pyrimidin-4-yl}-2-propyl-benzoic acid]
20	36	CCCc1cc(-c2cc(NCCc3ccc4sccc4c3F)ncn2)ccc1C(=O)O [Example 378, 4-{6-[2-(4-Fluoro-benzo[b]thiophen-5-yl)-ethylamino]-pyrimidin-4-yl}-2-propyl-benzoic acid]
51	155	CCCc1cc(-c2cc(NCCc3cc4c(cc3OC)OCCO4)ncn2)ccc1C(=O)O [Example 379, 4-{6-[2-(7-Methoxy-2,3-dihydro-benzo[1,4]dioxin-6-yl)-ethylamino]-pyrimidin-4-yl}-2-propyl-benzoic acid]
16	17	CCCc1cc(-c2cc(NCCc3c(OC)cc4ccccc4c3C)ncn2)ccc1C(=O)O [Example 380, 4-{6-[2-(3-Methoxy-1-methyl-naphthalen-2-yl)-ethylamino]-pyrimidin-4-yl}-2-propyl-benzoic acid]
51	126	COc1cc2sccc2cc1CCNc1cc(-c2ccc(CC(=O)O)c(OC)c2)ncn1 [Example 381, (2-Methoxy-4-{6-[2-(6-methoxy-benzo[b]thiophen-5-yl)-ethylamino]-pyrimidin-4-yl}-phenyl)-acetic acid]
160	81	COc1cc(-c2cc(NCCc3ccc4sccc4c3F)ncn2)ccc1CC(=O)O [Example 382, (4-{6-[2-(4-Fluoro-benzo[b]thiophen-5-yl)-ethylamino]-pyrimidin-4-yl}-2-methoxy-phenyl)-acetic acid]
177	194	COc1cc2c(cc1CCNc1cc(-c3ccc(CC(=O)O)c(OC)c3)ncn1)OCCO2 [Example 383, (2-Methoxy-4-{6-[2-(7-methoxy-2,3-dihydro-benzo[1,4]dioxin-6-yl)-ethylamino]-pyrimidin-4-yl}-phenyl)-acetic acid]
145	28	COc1cc(-c2cc(NCCc3c(OC)cc4ccccc4c3C)ncn2)ccc1CC(=O)O [Example 384, (2-Methoxy-4-{6-[2-(3-methoxy-1-methyl-naphthalen-2-yl)-ethylamino]-pyrimidin-4-yl}-phenyl)-acetic acid]
61	49	CCCc1cc(-c2cc(NCCc3cc4c(cc3OC)OCCO4)ncn2)ccc1CC(=O)O [Example 387, (4-{6-[2-(7-Methoxy-2,3-dihydro-benzo[1,4]dioxin-6-yl)-ethylamino]-pyrimidin-4-yl}-2-propyl-phenyl)-acetic acid]
45	13	CCCc1cc(-c2cc(NCCc3c(OC)cc4ccccc4c3C)ncn2)ccc1CC(=O)O [Example 388, (4-{6-[2-(3-Methoxy-1-methyl-naphthalen-2-yl)-ethylamino]-pyrimidin-4-yl}-2-propyl-phenyl)-acetic acid]
51	25	CCCc1cc(-c2cc(NCCc3cc(F)c4sccc4c3)ncn2)ccc1C(=O)O [Example 389, 4-{6-[2-(7-Fluoro-benzo[b]thiophen-5-yl)-ethylamino]-pyrimidin-4-yl}-2-propyl-benzoic acid]
131	19	CCOc1cc(-c2cc(NCCc3cc(C)c4sccc4c3)ncn2)sc1C(=O)O [Example 391, 3-Ethoxy-5-{6-[2-(7-methyl-benzo[b]thiophen-5-yl)-ethylamino]-pyrimidin-4-yl}-thiophene-2-carboxylic acid]

Structure (SMILES)	IC50 (PTGER2 (EP2)) [nM]	IC50 (PTGER4 (EP4)) [nM]
O=C(O)c1ccc(-c2cc(NCCc3ccc4sccc4c3F)ncn2)cc1OC1CCC1 [Example 366, 2-Cyclobutoxy-4-{6-[2-(4-fluoro-benzo[b]thiophen-5-yl)-ethylamino]-pyrimidin-4-yl}-benzoic acid]	84	119
